Experimental data from patent US12351574B2, “Selective ligands for modulation of GIRK channels” (Northeastern University, priority 2018, dated 2025).

Molecular target: T1, GIRK1/2 (UniProt P48542+P48549)
T1 sequence (P48549 1-501): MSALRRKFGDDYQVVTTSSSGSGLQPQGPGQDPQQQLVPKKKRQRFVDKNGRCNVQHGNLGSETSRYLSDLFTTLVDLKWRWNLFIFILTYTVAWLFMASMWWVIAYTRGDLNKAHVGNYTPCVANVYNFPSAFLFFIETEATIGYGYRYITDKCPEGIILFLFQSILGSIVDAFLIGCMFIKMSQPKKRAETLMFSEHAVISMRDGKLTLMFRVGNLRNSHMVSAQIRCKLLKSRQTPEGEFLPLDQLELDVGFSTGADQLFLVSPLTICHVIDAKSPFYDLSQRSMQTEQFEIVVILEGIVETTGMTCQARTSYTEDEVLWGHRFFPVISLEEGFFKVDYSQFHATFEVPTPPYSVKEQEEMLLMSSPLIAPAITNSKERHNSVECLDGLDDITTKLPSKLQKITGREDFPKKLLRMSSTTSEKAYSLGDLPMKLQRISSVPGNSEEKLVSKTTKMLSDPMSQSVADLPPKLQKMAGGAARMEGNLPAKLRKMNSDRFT
T1 sequence (P48542 1-425): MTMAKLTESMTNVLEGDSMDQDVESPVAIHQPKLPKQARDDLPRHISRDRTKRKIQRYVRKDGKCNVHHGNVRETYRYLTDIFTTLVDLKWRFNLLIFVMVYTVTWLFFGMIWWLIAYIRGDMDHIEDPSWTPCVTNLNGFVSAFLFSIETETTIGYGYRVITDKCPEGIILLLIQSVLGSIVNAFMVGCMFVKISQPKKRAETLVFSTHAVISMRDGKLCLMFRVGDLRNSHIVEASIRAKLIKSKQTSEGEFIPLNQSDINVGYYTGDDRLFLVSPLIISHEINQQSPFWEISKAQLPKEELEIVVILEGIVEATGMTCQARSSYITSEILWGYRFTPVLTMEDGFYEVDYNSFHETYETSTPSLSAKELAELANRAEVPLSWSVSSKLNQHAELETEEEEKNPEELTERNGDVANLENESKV
Test: diC8-PIP2 concentration-response (NPo), inside-out macropatches from Xenopus oocytes, GIRK1/2
Format: cell-based, human GIRK1, mouse GIRK2
Set-up: expressed in transfected cells; host or cells: Xenopus laevis oocytes (cRNA injection)
Conditions: in the presence of 10 μM compound; for EMAX of diC8-PIP2 response (NPo), GIRK1/2: control 5.7±0.3; for apparent affinity of GIRK1/2 channels to diC8-PIP2: control 36±7 μM
Excerpt: The inventors next turned to inside-out macropatches from Xenopus oocytes to compare changes in the PIP2 sensitivity by examining diC8 concentration-responses in the absence and presence of saturating concentrations of each of the activating compounds. […] In FIG. 14B, the control plot overlays the GAT1508 and GAT1521 plots; only ML297 was able to left-shift the sensitivity of GIRK1/4 heteromers to PIP2, while both GAT1508 and GAT1521 were ineffective in changing the sensitivity of these heteromers to PIP2.
Xenopus laevis oocyte expression: Plasmid DNAs of GIRK channel subunits were linearized prior to in vitro transcription. Capped RNAs were transcribed using mMESSAGE mMACHINE T7 Transcription Kit (Thermo Fisher Scientific). Xenopus oocytes were surgically extracted, dissociated and defolliculated by collagenase treatment, and microinjected with 50 nl of a water solution containing 1 ng of each GIRK subunit RNA. For TEVC experiments, oocytes were kept 2 days at 17° C. before recording, while for NPo experiments oocytes were incubated for up to 4 days at 17° C.
Oocyte macropatch studies: Macropatch GIRK channel activity was recorded from devitellinized oocytes under the inside-out mode of standard patch clamp methods using an AM2400 patch clamp amplifier (A-M systems). […] Oocytes were bathed with a solution comprising (in mM): 96 KCl, 5 EGTA, 1 MgATP and 10 HEPES (pH 7.4). Current amplitudes were measured at −80 mV with a sampling rate of 10 kHz. Data were analyzed using WinEDR and Clampfit software (Molecular Devices).

Compound	EMAX of diC8-PIP2 response (NPo), GIRK1/2	apparent affinity of GIRK1/2 channels to diC8-PIP2 [µM]
Cc1cc(NC(=O)Nc2ccc(Br)s2)n(-c2ccccc2)n1 [GAT1508, 1-(5-bromothiophen-2-yl)-3-(3-methyl-1-phenyl-1H-pyrazol-5-yl)urea]	10.5±0.3	5.5 ± 7
Cc1cc(NC(=O)Nc2ccc(C)s2)n(-c2ccccc2)n1 [GAT1521, 1-(3-methyl-1-phenyl-1H-pyrazol-5-yl)-3-(5-methylthiophen-2-yl)urea]	9.1±0.2	11 ± 2
Cc1cc(NC(=O)Nc2ccc(F)c(F)c2)n(-c2ccccc2)n1 [ML297, reference compound]	7.5±0.4	23 ± 5
